This note sets out measurements from ChEMBL document CHEMBL5465560, “Selectivity Literature for EUbOPEN Chemogenomic Library” (2024).

Assay [1] addresses Serine/threonine-protein kinase 24 (Homo sapiens) (UniProt Q9Y6E0). Description: Selectivity interaction (Kinase panel (Z-LYTE Assay)) EUB0001632a STK24. The following applies: at 10 µM.
The target of assay [2] is T1, Ephrin type-B receptor 3 (Homo sapiens) (UniProt P54753).
T1 sequence (whole entry): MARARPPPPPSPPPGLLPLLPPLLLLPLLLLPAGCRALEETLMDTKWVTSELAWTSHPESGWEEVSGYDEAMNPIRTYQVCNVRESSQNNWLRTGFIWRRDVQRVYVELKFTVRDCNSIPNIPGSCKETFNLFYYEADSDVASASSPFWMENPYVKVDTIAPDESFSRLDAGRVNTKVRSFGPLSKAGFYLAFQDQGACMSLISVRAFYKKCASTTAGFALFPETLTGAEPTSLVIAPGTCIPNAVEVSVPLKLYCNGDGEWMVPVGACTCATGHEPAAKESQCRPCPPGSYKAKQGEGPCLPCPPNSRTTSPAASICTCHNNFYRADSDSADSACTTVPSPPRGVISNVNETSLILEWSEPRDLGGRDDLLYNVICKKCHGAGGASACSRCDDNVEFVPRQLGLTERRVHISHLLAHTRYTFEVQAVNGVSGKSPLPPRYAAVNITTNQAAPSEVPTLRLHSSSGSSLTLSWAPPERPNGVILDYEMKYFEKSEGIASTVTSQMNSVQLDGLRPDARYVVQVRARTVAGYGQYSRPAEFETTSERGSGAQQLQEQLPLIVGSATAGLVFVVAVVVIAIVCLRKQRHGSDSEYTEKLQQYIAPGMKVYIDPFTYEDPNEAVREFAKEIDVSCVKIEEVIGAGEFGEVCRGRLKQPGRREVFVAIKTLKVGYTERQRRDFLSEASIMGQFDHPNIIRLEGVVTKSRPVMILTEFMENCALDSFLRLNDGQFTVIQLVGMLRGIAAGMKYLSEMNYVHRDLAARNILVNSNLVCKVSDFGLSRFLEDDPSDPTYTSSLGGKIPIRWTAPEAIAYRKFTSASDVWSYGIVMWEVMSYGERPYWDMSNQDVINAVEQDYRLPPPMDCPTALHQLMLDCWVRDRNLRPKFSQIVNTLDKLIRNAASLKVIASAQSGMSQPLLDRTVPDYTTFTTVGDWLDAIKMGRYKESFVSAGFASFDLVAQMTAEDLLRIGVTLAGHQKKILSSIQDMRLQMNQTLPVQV
The following applies: at 10 µM.

The target of assay [3] is T2, Serine/threonine-protein kinase LATS1 (Homo sapiens) (UniProt O95835).
T2 sequence (whole entry): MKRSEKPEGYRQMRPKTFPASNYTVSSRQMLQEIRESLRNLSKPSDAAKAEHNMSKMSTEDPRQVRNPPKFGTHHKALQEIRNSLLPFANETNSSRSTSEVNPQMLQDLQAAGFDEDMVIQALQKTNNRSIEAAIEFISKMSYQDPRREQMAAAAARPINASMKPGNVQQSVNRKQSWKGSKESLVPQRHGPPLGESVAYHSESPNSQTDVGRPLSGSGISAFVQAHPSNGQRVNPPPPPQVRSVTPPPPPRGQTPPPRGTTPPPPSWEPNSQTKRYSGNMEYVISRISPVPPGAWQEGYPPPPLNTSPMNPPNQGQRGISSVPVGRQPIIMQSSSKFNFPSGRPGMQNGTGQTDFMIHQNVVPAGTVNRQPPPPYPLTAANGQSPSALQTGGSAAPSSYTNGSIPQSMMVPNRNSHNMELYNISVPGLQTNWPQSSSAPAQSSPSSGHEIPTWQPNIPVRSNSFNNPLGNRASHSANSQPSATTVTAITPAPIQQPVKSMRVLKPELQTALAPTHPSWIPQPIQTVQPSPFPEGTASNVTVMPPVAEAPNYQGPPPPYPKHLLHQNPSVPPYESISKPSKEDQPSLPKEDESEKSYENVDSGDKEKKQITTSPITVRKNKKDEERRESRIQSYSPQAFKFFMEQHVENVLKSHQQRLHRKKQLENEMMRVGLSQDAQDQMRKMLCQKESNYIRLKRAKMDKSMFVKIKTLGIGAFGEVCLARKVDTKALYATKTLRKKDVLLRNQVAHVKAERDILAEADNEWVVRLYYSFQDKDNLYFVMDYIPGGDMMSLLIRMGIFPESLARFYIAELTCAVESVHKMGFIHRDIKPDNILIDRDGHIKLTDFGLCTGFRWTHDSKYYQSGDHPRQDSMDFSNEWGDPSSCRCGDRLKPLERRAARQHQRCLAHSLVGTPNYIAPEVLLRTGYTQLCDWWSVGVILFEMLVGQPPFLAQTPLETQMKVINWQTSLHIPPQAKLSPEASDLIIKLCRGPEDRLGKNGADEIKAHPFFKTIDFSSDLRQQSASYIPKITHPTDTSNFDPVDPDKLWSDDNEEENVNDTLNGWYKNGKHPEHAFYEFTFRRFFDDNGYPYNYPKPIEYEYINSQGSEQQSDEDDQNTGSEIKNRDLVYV
The experiment in a line: Selectivity interaction (KinomeScan (DiscoverX)) EUB0000666a LATS1. The following applies: at 10 µM.

The target in assay [4] is Dual specificity protein kinase CLK2 (Homo sapiens, UniProt P49760). Description: Selectivity interaction (KinomeScan (DiscoverX)) EUB0000229b CLK2. The following applies: at 10 µM.
Sequence of Dual specificity protein kinase CLK2 (P49760 whole entry, looked up): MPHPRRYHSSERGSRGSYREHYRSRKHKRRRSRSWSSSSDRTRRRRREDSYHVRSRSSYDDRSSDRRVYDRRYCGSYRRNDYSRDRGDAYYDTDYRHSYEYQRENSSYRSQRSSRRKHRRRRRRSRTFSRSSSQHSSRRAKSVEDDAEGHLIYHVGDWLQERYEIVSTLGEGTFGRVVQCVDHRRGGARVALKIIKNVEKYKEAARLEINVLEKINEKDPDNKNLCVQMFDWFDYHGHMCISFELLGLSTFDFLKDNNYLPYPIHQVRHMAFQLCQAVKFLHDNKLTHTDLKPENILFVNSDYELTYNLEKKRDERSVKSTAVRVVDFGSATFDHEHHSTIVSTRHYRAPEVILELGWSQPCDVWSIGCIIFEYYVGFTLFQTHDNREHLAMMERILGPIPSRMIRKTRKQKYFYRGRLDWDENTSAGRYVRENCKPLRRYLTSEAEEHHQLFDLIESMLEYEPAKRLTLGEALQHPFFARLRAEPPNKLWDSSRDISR
Another assay has as its target D(1A) dopamine receptor (Homo sapiens, UniProt P21728). The experiment in a line: Selectivity interaction (Panel of kinases, GPCRs, ion channels and transporters (enzymatic assay)) EUB0000266bCl DRD1.
The target of assay [5] is G protein-coupled receptor kinase 4 (Homo sapiens) (UniProt P32298). The experiment in a line: Selectivity interaction (ProQinase) EUB0000171b GRK4.
Sequence of G protein-coupled receptor kinase 4 (Homo sapiens) (P32298 whole entry, looked up): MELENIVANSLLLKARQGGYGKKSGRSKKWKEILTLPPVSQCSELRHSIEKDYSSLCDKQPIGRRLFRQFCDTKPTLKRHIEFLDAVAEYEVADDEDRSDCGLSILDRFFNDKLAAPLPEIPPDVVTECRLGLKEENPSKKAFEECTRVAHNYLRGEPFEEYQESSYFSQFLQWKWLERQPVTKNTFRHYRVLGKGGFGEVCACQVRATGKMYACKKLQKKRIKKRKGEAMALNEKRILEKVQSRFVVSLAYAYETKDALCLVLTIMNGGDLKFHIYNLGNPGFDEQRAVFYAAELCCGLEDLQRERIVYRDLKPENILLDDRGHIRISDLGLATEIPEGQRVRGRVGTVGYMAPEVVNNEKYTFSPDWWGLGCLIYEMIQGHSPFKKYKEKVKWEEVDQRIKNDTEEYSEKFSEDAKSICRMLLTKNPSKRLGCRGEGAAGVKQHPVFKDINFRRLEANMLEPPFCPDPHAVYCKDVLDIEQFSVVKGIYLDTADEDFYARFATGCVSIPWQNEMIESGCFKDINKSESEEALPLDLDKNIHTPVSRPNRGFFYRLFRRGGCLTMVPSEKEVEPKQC
The target in assay [6] is Citron Rho-interacting kinase (Homo sapiens) (UniProt O14578). The experiment in a line: Selectivity interaction (KinomeScan (DiscoverX)) EUB0000595a CIT. The following applies: at 10 µM.
Sequence of Citron Rho-interacting kinase (Homo sapiens) (O14578 whole entry): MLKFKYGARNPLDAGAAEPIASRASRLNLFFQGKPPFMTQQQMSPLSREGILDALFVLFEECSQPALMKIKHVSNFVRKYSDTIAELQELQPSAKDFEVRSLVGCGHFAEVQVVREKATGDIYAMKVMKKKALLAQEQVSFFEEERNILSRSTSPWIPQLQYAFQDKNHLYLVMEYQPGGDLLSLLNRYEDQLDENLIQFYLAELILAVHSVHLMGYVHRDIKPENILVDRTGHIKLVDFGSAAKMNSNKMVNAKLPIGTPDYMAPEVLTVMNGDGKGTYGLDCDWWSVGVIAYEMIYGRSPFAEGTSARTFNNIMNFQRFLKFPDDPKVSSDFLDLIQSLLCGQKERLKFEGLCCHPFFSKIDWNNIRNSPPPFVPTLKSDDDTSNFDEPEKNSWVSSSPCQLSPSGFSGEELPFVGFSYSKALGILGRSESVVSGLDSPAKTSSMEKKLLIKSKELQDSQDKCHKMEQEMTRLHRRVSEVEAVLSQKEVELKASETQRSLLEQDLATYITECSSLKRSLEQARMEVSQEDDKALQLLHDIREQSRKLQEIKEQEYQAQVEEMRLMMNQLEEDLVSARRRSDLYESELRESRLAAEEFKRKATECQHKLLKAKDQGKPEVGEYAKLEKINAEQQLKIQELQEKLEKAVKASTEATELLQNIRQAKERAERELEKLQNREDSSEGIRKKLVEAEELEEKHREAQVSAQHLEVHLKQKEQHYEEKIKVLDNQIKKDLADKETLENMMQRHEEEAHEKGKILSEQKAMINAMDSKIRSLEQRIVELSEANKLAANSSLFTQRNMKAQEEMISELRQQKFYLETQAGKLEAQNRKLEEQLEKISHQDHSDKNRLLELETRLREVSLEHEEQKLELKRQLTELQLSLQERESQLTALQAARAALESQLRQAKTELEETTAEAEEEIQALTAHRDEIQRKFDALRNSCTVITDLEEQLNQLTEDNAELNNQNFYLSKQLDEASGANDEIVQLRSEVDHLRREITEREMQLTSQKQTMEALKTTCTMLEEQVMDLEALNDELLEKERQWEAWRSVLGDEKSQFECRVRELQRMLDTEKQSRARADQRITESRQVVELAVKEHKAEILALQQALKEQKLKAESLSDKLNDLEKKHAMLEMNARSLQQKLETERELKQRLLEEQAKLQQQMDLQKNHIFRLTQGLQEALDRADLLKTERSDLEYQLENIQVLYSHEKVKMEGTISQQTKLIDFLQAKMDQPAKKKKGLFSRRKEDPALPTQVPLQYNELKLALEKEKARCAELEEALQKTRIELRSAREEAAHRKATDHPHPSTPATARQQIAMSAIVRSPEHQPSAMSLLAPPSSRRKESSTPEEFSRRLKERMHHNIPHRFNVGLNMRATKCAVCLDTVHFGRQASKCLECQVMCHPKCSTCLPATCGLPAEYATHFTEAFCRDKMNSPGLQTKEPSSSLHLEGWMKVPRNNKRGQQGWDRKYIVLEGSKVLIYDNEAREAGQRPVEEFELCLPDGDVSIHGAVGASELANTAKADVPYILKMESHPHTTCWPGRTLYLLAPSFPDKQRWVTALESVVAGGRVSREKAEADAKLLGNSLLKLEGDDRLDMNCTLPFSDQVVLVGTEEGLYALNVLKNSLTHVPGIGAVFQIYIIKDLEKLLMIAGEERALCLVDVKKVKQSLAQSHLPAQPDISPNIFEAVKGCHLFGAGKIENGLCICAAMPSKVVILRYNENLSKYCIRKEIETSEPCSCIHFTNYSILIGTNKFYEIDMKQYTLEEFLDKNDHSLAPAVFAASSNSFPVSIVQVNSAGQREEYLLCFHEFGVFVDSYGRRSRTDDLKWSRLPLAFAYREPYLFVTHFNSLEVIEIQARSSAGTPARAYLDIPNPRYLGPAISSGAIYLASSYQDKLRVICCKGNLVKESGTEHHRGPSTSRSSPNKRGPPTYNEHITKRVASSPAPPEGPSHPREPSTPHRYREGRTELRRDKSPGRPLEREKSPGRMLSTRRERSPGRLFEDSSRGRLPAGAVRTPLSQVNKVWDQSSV

Sequence of Serine/threonine-protein kinase 24 (Homo sapiens) (Q9Y6E0 whole entry, looked up): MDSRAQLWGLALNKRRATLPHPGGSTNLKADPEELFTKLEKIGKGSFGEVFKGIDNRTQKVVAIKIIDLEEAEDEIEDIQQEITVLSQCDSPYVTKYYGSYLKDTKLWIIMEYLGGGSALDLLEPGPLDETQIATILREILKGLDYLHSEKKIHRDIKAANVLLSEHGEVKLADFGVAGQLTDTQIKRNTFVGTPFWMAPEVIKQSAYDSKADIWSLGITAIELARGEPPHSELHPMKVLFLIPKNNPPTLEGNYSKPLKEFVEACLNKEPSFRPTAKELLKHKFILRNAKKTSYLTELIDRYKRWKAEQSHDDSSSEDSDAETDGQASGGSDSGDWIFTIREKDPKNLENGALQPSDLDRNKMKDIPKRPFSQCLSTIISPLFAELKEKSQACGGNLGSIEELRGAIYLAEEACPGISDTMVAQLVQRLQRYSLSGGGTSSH
Sequence of D(1A) dopamine receptor (P21728 whole entry): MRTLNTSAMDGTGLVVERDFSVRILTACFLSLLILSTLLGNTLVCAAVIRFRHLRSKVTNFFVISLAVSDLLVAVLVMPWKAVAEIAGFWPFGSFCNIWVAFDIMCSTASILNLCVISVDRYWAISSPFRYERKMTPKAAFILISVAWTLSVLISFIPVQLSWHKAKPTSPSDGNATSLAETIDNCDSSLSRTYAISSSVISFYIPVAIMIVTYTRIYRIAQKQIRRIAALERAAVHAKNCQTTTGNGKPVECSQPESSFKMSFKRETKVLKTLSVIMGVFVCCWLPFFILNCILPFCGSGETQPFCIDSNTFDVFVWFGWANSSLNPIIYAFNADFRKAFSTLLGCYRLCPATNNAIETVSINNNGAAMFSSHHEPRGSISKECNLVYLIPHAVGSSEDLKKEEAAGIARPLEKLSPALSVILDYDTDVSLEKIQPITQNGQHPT

With `Cn1cc(-n2cnc3c(NCc4nc5cc(Cl)c(Cl)cc5[nH]4)nc(N4CCOCC4)nc32)cn1`, the % of control in assay [1] is 1.16%.
In assay [2], `Cc1cc([C@@H](C)Nc2ccccc2C(=O)O)c2nc(N3CCOCC3)cc(=O)n2c1` [AZD-6482] came in with a % of control of 100%.
Compound `O=C(NOC[C@H](O)CO)c1ccc(F)c(F)c1Nc1ccc(I)cc1F` gave a % of control in assay [3] of 100%.
Regarding `COc1cc(N(C)c2ccnc3ccc(C(F)(F)F)cc23)cc(OC)c1OC`, the % binding in assay [4] was 85%.
On D(1A) dopamine receptor, `CCn1c(-c2nc3cc(C(=O)N4CCCC(N)C4)ccc3n2C)cc2ccccc21` (stereo not drawn) gave a pXC50 of 4.6 M.
In the case of `C=CC(=O)Nc1cccc(C(=O)Nc2ccc(Nc3cc(-c4[nH]c(SC)nc4C)ccn3)cc2)c1`, the % of control came out at 101% in assay [5] (at 1 µM) and 97% in assay [5] (at 5 µM).
The compound `COCC(=O)NC/C=C/c1ccc2ncnc(Nc3ccc(Oc4ccc(C)nc4)c(C)c3)c2c1` [CP-724714] showed a % of control in assay [6] of 76%.
